According to patent US20260166021A1, “POLYMORPHIC FORMS OF A SOLUBLE EPOXIDE HYDROLASE INHIBITOR AND FORMULATIONS THEREOF” (EicOsis, LLC, priority 2022, published 2026):
Converted amounts (≈) assume the structure as drawn. “And” between values parts separate entries of the source, which are not always exact repeats. Identical values can stand only once. Marks after values point to notes of the source that are not given here.

Assays:
Assay type in all cases: physicochemical
[1] = Competitive slurry experiments (solvent-mediated polymorph transformation, XRD); conditions: 1 and 7 days
Protocol: Polymorph stability and interconversions were analyzed with competitive slurry experiments. The competitive slurry (solvent-mediated transformation) experiments were performed on Forms A, B, D, E, F, G, and I generated through scaled-up crystallization (summarized in TABLE 11). […] The suspensions were aliquoted at one day and seven days and filtered to isolate the solids. Remaining solid was analyzed by XRD without drying.
In FIG. 66, the second spectrum from the top corresponds to Form E. These XRD data confirmed that Patterns C, K, and D were afforded in these solvents.
In order to further confirm the rank of stability order of the selected forms and extend the temperature range of stability relationship up to 70° C. covering potential API process conditions, binary form slurries were conducted with starting mixtures of (1) Forms A and D, and (2) Forms D and E. The resultant polymorphs were characterized with XRD after 1 and 7 days, the results of which analyses are shown in FIGURE S 67-68 and summarized in TABLE 13. Pattern D stood out from both binary mixture slurries of A & D and of D & E after seven-day stirring at the elevated temperature.
Additional single form slurry experiments were conducted on Forms A, D, and E in either water or heptane at room temperature. […] In agreement with prior competitive slurry experiments, Form D was stable at room temperature in n-heptane. Pattern E was obtained from slurries starting with Forms A and E in n-heptane. As expected, Form C was formed from the Pattern E slurry in water.

[2] = Thermal stress studies at 60° C. (XRD, HPLC); conditions: HPLC
Protocol: Briefly, 20 mg of solid Form A, B, C, D, E, F, G, and I were weighed into 7 mL glass vials. The vials were covered with tissue and stored in ovens set to 60° C. and ambient pressure. Following 1 and 7 days incubation, solid was collected for XRD analysis.
As shown in these figures, Forms B and C converted to Forms D and A, respectively, while the other forms remained unchanged.
The starting materials, intermediates (1 day of thermal stress), and products (7 days of thermal stress) were analyzed by H PLC. Representative chromatograms from the Form D thermal stress analyses are shown in FIGS. 81-83 (starting material, 1 day, and 7 day samples, respectively).

[3] = Equilibrium-solubility screening in solvents and excipients; conditions: for solubility thermodynamic at 24 h: thermodynamic from solid
Protocol: For these analyses, Form D or Form C was mixed with 0.5 or 1.0 mL of solvents and equilibrated for approximately 24 hours. The mixture was filtered through 0.45 μm centrifuge filters.
As expected, the compound was not easily ionized at physiologically relevant pH. […] In addition, these excipients included surfactants, co-solvents, and lipids which are amenable for use in self-emulsifying drug delivery systems (SEDDS). The XRD pattern of the starting material was maintained for each sample after equilibrium.

[4] = Supersaturation monitoring in PEG 300; conditions: PEG 300 (0.5 mL)
[5] = Thermal gravimetric analysis (TGA); conditions: below 150° C.
Protocol: Thermal gravimetric analyses were performed on each sample “as is.” Unless otherwise noted, samples were weighed in an alumina crucible and analyzed from 30-350° C. at 10° C./min.
Form C weight loss at 39° C.-50° C. likely reflected methanol loss.

[6] = Capmul MCM, (medium name cut off)
[7] = Castor Oil, (medium name cut off)

CC[C@H](C)C(=O)N1CCC(NC(=O)Nc2ccc(OC(F)(F)F)c(F)c2)CC1 [Form D, (S)-1-(3-fluoro-4-(trifluoromethoxy)phenyl)-3-(1-(2-methylbutanoyl)piperidin-4-yl)urea]
polymorph stability in binary form slurries ([1]; mixtures A & D and D & E, n-heptane, up to 70° C.): most thermodynamically stable | single form slurry in n-heptane: resultant polymorph ([1]; n-heptane, room temperature): stable | polymorph stability in competitive slurry ([1]; room temperature, water, MTBE or n-heptane, listed as Pattern D): most stable form | Day 1 % AUC ([2]; 60° C.): 100% | Day 7 % AUC ([2]; 60° C.): 100% | Initial % AUC ([2]; before thermal stress): 100% | Equilibrium Solubility ([3]; Campul MCM): 56.2 mg/mL | XRD Pattern At Equilibrium ([3]; Campul MCM): Form D | XRD Pattern At Equilibrium ([3]; Canola Oil): Form D | solubility thermodynamic at 24 h ([3]; Canola Oil, oil or lipid): < 100 µg/mL | Equilibrium Solubility [3, 6]: 24.5 mg/mL | XRD Pattern At Equilibrium [3, 6]: Form D | Equilibrium Solubility ([3]; Captex 355): 2.0 mg/mL | XRD Pattern At Equilibrium ([3]; Captex 355): Form D | Equilibrium Solubility ([3]; Castor Oil): 5.5 mg/mL | XRD Pattern At Equilibrium ([3]; Castor Oil): Form D | Equilibrium Solubility [3, 7]: 42.6** mg/mL | XRD Pattern At Equilibrium [3, 7]: Form D | XRD Pattern At Equilibrium ([3]; Corn Oil): Form D | solubility thermodynamic at 24 h ([3]; Corn Oil, oil or lipid): < 100 µg/mL | XRD Pattern At Equilibrium ([3]; DI water): Form C (minor | XRD Pattern At Equilibrium, minor form ([3]; DI water): Form D) | solubility thermodynamic at 24 h ([3]; DI water, water, approximately 24 hours): < 100 µg/mL | Equilibrium Solubility ([3]; FaSSIF): 0.2 mg/mL | XRD Pattern At Equilibrium ([3]; FaSSIF): Form D | solubility thermodynamic at 24 h ([3]; FaSSIF): < 100 µg/mL | Equilibrium Solubility ([3]; Gelucire 44/14): 37.7** mg/mL | XRD Pattern At Equilibrium ([3]; Gelucire 44/14): Form D | XRD Pattern At Equilibrium ([3]; Glycerol): Form D | solubility thermodynamic at 24 h ([3]; Glycerol, organic solvent or mixture): < 100 µg/mL | Equilibrium Solubility ([3]; Intralipid): 0.1 mg/mL | XRD Pattern At Equilibrium ([3]; Intralipid): Form D | Equilibrium Solubility ([3]; Kolliphor): 1.4 mg/mL | XRD Pattern At Equilibrium ([3]; Kolliphor): Form D | Equilibrium Solubility ([3]; Kolliphor EL): 20.4 mg/mL | XRD Pattern At Equilibrium ([3]; Kolliphor EL): Form D | Equilibrium Solubility ([3]; Kolliphor HS-): 37.3** mg/mL | XRD Pattern At Equilibrium ([3]; Kolliphor HS-): Form D | Equilibrium Solubility ([3]; Labrafil): 9.6 mg/mL | XRD Pattern At Equilibrium ([3]; Labrafil): Form D | Equilibrium Solubility ([3]; Labrasol): 21.8 mg/mL | XRD Pattern At Equilibrium ([3]; Labrasol): Form D | Equilibrium Solubility ([3]; Miglyol 810): 2.0 mg/mL | XRD Pattern At Equilibrium ([3]; Miglyol 810): Form D | Equilibrium Solubility ([3]; Miglyol 812): 1.9 mg/mL | XRD Pattern At Equilibrium ([3]; Miglyol 812): Form D | solubility thermodynamic at 24 h ([3]; NaOH solution, pH 10.0, pH 10, aqueous buffer, pH 10.0 NaOH): < 100 µg/mL | Equilibrium Solubility ([3]; Oleic Acid): 9.0 mg/mL | XRD Pattern At Equilibrium ([3]; Oleic Acid): Form D | Equilibrium Solubility ([3]; PEG 300, 50%): 0.4 mg/mL and 0.5 mg/mL | XRD Pattern At Equilibrium ([3]; PEG 300, 50%): Form D | XRD Pattern At Equilibrium ([3]; PEG 300, 100%): Form D | XRD Pattern At Equilibrium ([3]; PEG 400, 50%): Form D | solubility thermodynamic at 24 h ([3]; PEG 400, 50%, aqueous with cosolvent or surfactant or cyclodextrin): 900 µg/mL (≈ 2220 µM) | Equilibrium Solubility ([3]; PEG 400, 100%): 17.0 mg/mL | XRD Pattern At Equilibrium ([3]; PEG 400, 100%): Form D | solubility thermodynamic at 24 h ([3]; PEG 400, 100%, organic solvent or mixture): 20100 µg/mL (≈ 49600 µM) | Equilibrium Solubility ([3]; Peceol): 12.9 mg/mL | XRD Pattern At Equilibrium ([3]; Peceol): Form D | Equilibrium Solubility ([3]; Plurol Oleique): 8.7 mg/mL | XRD Pattern At Equilibrium ([3]; Plurol Oleique): Form D | Equilibrium Solubility ([3]; Propylene): 24.1 mg/mL | XRD Pattern At Equilibrium ([3]; Propylene): Form D | XRD Pattern At Equilibrium ([3]; SLS, 1x CMC): Form C | solubility thermodynamic at 24 h ([3]; SLS, 1x CMC, aqueous with cosolvent or surfactant or cyclodextrin): < 100 µg/mL | Equilibrium Solubility ([3]; SLS, 5x CMC): 1.2 mg/mL | XRD Pattern At Equilibrium ([3]; SLS, 5x CMC): Form C | Equilibrium Solubility ([3]; SLS, 10x CMC): 1.5 mg/mL | XRD Pattern At Equilibrium ([3]; SLS, 10x CMC): Form C | Equilibrium Solubility ([3]; SLS, 100x CMC): 2.5 mg/mL | XRD Pattern At Equilibrium ([3]; SLS, 100x CMC): Form C | XRD Pattern At Equilibrium ([3]; Soybean Oil): Form D | solubility thermodynamic at 24 h ([3]; Soybean Oil, oil or lipid): < 100 µg/mL | Equilibrium Solubility ([3]; Sulfobutylether): 7.9 mg/mL | XRD Pattern At Equilibrium ([3]; Sulfobutylether): Form D | Equilibrium Solubility ([3]; Transcutol HP): 38.1 mg/mL | XRD Pattern At Equilibrium ([3]; Transcutol HP): Form D | Equilibrium Solubility ([3]; Triacetin): 6.4 mg/mL | XRD Pattern At Equilibrium ([3]; Triacetin): Form D | XRD Pattern At Equilibrium ([3]; Tween 80, 1x): Form C | solubility thermodynamic at 24 h ([3]; Tween 80, 1x, aqueous with cosolvent or surfactant or cyclodextrin): < 100 µg/mL | XRD Pattern At Equilibrium ([3]; Tween 80, 5x): Form C | solubility thermodynamic at 24 h ([3]; Tween 80, 5x, aqueous with cosolvent or surfactant or cyclodextrin): < 100 µg/mL | XRD Pattern At Equilibrium ([3]; Tween 80, 10x): Form C | solubility thermodynamic at 24 h ([3]; Tween 80, 10x, aqueous with cosolvent or surfactant or cyclodextrin): < 100 µg/mL | XRD Pattern At Equilibrium ([3]; Tween 80, 100x): Form C | solubility thermodynamic at 24 h ([3]; Tween 80, 100x, aqueous with cosolvent or surfactant or cyclodextrin): < 100 µg/mL | Equilibrium Solubility ([3]; Vitamin E): 40.6** mg/mL | XRD Pattern At Equilibrium ([3]; Vitamin E): Form D | XRD Pattern At Equilibrium ([3]; pH 1.0 HCl): Forms C & D | solubility thermodynamic at 24 h ([3]; pH 1.0 HCl, pH 1, simulated gastric fluid): < 100 µg/mL | XRD Pattern At Equilibrium ([3]; pH 7.4): Form D | solubility thermodynamic at 24 h ([3]; pH 7.4 medium (buffer not named), pH 7.4, aqueous buffer, pH 7.4): < 100 µg/mL | XRD Pattern At Equilibrium ([3]; pH 10.0 NaOH): Forms C & D | Step → Observation ([4]; 100 mg/mL, 1. RT stirring for 1 hr, listed as Pattern D): 1. RT stirring for 1 hr → suspension | Step → Observation ([4]; 100 mg/mL, 2. 40 C. heating for 0.5 hr, listed as Pattern D): 2. 40 C. heating for 0.5 hr → clear solution | Step → Observation ([4]; 100 mg/mL, 3. RT storage for ~8 days, listed as Pattern D): 3. RT storage for ~8 days → clear solution | Step → Observation ([4]; 100 mg/mL, 4. RT storage for ~9 days, listed as Pattern D): 4. RT storage for ~9 days → precipitation | Step → Observation ([4]; 200 mg/mL, 1. RT stirring for 1 hr): 1. RT stirring for 1 hr →suspension | Step → Observation ([4]; 200 mg/mL, 2. 40 C. heating for 48 hr, listed as Pattern D): 2. 40 C. heating for 48 hr →suspension | Step → Observation ([4]; 200 mg/mL, 3. 55 C. heating for <16 hr): 3. 55 C. heating for <16 hr →clear solution | Step → Observation ([4]; 200 mg/mL, 4. RT storage for <3.5 days): 4. RT storage for <3.5 days →precipitation | Step → Observation ([4]; 200 mg/mL, 5. 55 C. reheating for overnight): 5. 55 C. reheating for overnight →clear solution | Step → Observation ([4]; 200 mg/mL, 6. RT storage for overnight): 6. RT storage for overnight →precipitation | TGA: wt change [5]: No wt change below
